These compounds were tested on Radical scavenging activity (assay: Antioxidant activity assessed as inhibition of DPPH radical […] at 33 uM after 5 min by spectrophotometric analysis).
Assay type: functional

With `O=c1cc(-c2ccccc2)oc2cc(O)ccc12` as the compound, how does the inhibition read?
The inhibition was 2.8%.

`O=C1c2ccc(O)cc2O[C@H](c2ccc(O)c(O)c2)[C@H]1O` was tested. Which inhibition did it give?
Its inhibition is 91.9%.

`COc1ccc([C@@H]2CC(=O)c3c(O)cc(O)cc3O2)cc1O` was tested. Which inhibition did it give?
The inhibition was 30%.

For `O=c1c(O)c(-c2cc(O)c(O)c(O)c2)oc2cc(O)cc(O)c12`, which inhibition is on record?
The inhibition was 72.8%.

With `O=C1CC(c2ccccc2)Oc2ccccc21` (stereo not given) as the compound, how does the inhibition read?
Its inhibition is 2.6%.

For `O=c1c(O)c(-c2ccccc2)oc2ccccc12`, which inhibition is on record?
The inhibition was 66%.

With `O=c1c(O)c(-c2ccc(O)c(O)c2)oc2cc(O)ccc12` as the compound, how does the inhibition read?
Its inhibition is 79%.

With `COc1cccc2c(=O)cc(-c3ccccc3)oc12` as the compound, how does the inhibition read?
The inhibition was 0.7%.

Which inhibition does the source give for `COc1cc(-c2oc3cc(O)cc(O)c3c(=O)c2O)cc(O)c1O` here?
The inhibition was 84.6%.

Which inhibition does the source give for `O=c1c(O)c(-c2ccc(O)cc2)oc2cc(O)cc(O)c12` here?
The inhibition was 93.5%.

Which inhibition does the source give for `O=c1cc(-c2ccccc2)oc2ccccc12` here?
Its inhibition is 1.5%.

How did the inhibition turn out when `O=c1c(O)c(-c2ccc(O)c(O)c2)oc2cc(O)cc(O)c12` was run?
The inhibition was 89.8%.

For `O=c1c(O)c(-c2cc(O)c(O)c(O)c2)oc2cc(O)ccc12`, which inhibition is on record?
The inhibition was 82.3%.

`O=c1cc(-c2ccccc2)oc2cccc(O)c12` was tested. Which inhibition did it give?
Its inhibition is 0.6%.

For `O=c1cc(-c2ccccc2)oc2cc(O)cc(O)c12`, which inhibition is on record?
The inhibition was 1.1%.

`O=C1C[C@@H](c2ccc(O)cc2)Oc2cc(O)cc(O)c21` was tested. Which inhibition did it give?
The inhibition was 6.3%.

With `O=c1cc(-c2ccc(O)cc2)oc2cc(O)cc(O)c12` as the compound, how does the inhibition read?
The inhibition was 0.7%.

With `O=c1c(O)c(-c2ccc(O)cc2O)oc2cc(O)cc(O)c12` as the compound, how does the inhibition read?
Its inhibition is 96.5%.

Which inhibition does the source give for `O=C1c2c(O)cc(O)cc2O[C@H](c2ccc(O)c(O)c2)[C@H]1O` here?
Its inhibition is 94.8%.

`O=c1c(O)c(-c2ccccc2)oc2cc(O)cc(O)c12` was tested. Which inhibition did it give?
The inhibition was 91.8%.

From ChEMBL document CHEMBL3046657, “Quantum chemical QSAR study of flavones and their radical-scavenging activity” (Med Chem Res, 2007)
